Measurements reported in BindingDB's records for doi:10.7270/Q2J964TC (Burnham Center for Chemical Genomics, 2010).

Target: T1, Mannose-6-phosphate isomerase (Homo sapiens, UniProt P34949)
T1 sequence (P34949 whole entry): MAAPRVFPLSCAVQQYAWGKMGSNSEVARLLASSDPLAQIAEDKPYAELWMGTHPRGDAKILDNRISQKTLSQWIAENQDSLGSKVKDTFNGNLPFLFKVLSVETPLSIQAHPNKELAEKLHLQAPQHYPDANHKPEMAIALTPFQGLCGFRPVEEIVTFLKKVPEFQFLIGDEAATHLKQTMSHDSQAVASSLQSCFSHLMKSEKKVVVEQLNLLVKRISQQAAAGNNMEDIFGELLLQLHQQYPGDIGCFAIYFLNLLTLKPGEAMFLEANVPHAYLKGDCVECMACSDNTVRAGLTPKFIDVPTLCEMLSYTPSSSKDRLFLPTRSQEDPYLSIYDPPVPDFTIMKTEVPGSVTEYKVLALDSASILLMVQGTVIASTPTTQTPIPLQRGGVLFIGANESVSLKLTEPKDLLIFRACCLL
Test: PMI enzyme inhibitors, confirmation, biochemical, fluorescence intensity (AID 1535)

Work on `Oc1c(-c2ccccc2)sc2ccccc12` [2-phenyl-1-benzothiophen-3-one] yielded an IC50 greater than 100 µM.
